Measurements: patent publication US11008313B2, “Substituted 1-methyl-1,2,3,4-tetrahydroisoquinoline molecules as PCSK9 allosteric binders” (Merck Sharp & Dohme Corp., priority 2016, dated 2021)
pIC50: −log10 of the molar value.

Columns and labels:
PCSK9 [1] = biological target: T1, PCSK9 (Homo sapiens, UniProt Q8NBP7); experiment: Differential scanning calorimetry (DSC) assay, direct binding / thermal stabilization of PCSK9; settings: Tm(with compound)−Tm(no compound); 2 μM PCSK9, 300 μM test compound
Procedure, shortened: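 Thermal stabilization of 2 μM PCSK9 with or without 300 μM compound in 25 mM HEPES pH 7.5, 150 mM NaCl, 1 mM CaCl2, 3.75% DMSO. Sample heated 20–80 °C at 200 °C/hr against buffer reference. Protein Tm derived from each thermogram.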

PCSK9 [2] = biological target: T1, PCSK9; experiment: Fluorescence polarization competition binding assay (probe: compound of Example 57); settings: 2 μM PCSK9, 50 nM compound of Example 57 as probe, overnight incubation; read-out: FP IC
Procedure, shortened: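 Competition fluorescence-polarization binding: 2 μM PCSK9 with 50 nM fluorescent probe in 20 mM HEPES pH 7.5, 150 mM NaCl, 1 mM CaCl2, 0.005% P-20, incubated with test compound overnight in the dark. Anisotropy read; % inhibition relative to DMSO wells and probe-without-PCSK9 wells.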

T1 sequence (Q8NBP7 153-692): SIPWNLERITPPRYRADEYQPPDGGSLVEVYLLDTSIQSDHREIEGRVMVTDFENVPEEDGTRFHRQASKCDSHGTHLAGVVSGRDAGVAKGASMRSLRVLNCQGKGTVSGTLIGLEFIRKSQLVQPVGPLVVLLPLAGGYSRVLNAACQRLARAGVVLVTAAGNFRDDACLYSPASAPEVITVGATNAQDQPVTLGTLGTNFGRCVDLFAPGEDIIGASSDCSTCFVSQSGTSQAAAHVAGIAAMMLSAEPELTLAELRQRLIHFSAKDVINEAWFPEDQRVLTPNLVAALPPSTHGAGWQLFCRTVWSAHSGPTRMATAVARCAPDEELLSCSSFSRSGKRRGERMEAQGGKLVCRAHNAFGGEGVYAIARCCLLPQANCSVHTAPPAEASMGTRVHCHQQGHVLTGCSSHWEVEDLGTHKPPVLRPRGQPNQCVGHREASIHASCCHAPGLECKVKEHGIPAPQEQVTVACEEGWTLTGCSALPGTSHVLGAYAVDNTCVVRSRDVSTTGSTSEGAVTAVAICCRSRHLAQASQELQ

SMILES	ΔTm at 300 µM (PCSK9 [1]) [°C]	pIC50 (PCSK9 [2])	DSC ΔTm (PCSK9 [1]) [°C]
C[C@]1(CC(=O)Nc2nccs2)NCCc2cc(OCCn3cc(COc4ccccc4)nn3)c(Oc3ccc(C(=O)O)c(F)c3)cc21 [Example 47, (R)-2-fluoro-4-((1-methyl-1-(2-oxo-2-(thiazol-2-ylamino)ethyl)-6-(2-(4-(phenoxymethyl)-1H-1,2,3-triazol-1-yl)ethoxy)-1,2,3,4-tetrahydroisoquinolin-7-yl)oxy)benzoic acid]	6.27	6.19	–
C[C@]1(CC(=O)Nc2nccs2)NCCc2cc(OCCn3cc(C4(C(=O)O)CC4)nn3)c(Oc3ccc(C(=O)O)c(F)c3)cc21 [Example 48, (R)-4-((6-(2-(4-(1-carboxycyclopropyl)-1H-1,2,3-triazol-1-yl)ethoxy)-1-methyl-1-(2-oxo-2-(thiazol-2-ylamino)ethyl)-1,2,3,4-tetrahydroisoquinolin-7-yl)oxy)-2-fluorobenzoic acid]	6.02	6.17	–
Cc1ccc(C2C(C(=O)O)c3ccccc3C(=O)N2c2cccc(-c3cn(CCOc4cc5c(cc4Oc4ccc(C(=O)O)c(F)c4)[C@@](C)(CC(=O)Nc4nccs4)NCC5)nn3)c2)cc1 (stereo partly drawn) [Example 51, 2-(3-(1-(2-(((R)-7-(4-carboxy-3-fluorophenoxy)-1-methyl-1-(2-oxo-2-(thiazol-2-ylamino)ethyl)-1,2,3,4-tetrahydroisoquinolin-6-yl)oxy)ethyl)-1H-1,2,3-triazol-4-yl)phenyl)-1-oxo-3-(p-tolyl)-1,2,3,4-tetrahydroisoquinoline-4-carboxylic acid]	6.87	6.15	–
COc1ccccc1C(=O)Nc1ccccc1-n1cc(C(=O)NCc2cn(CCOc3cc4c(cc3Oc3ccc(C(=O)O)c(F)c3)[C@@](C)(CC(=O)Nc3nccs3)NCC4)nn2)nc1C [Example 52, (R)-2-fluoro-4-((6-(2-(4-((1-(2-(2-methoxybenzamido)phenyl)-2-methyl-1H-imidazole-4-carboxamido)methyl)-1H-1,2,3-triazol-1-yl)ethoxy)-1-methyl-1-(2-oxo-2-(thiazol-2-ylamino)ethyl)-1,2,3,4-tetrahydroisoquinolin-7-yl)oxy)benzoic acid]	5.58	6.11	–
Cc1ccc(C2C(C(=O)O)c3ccccc3C(=O)N2c2cccc(-c3cn(CCOc4cc5c(cc4Oc4ccc(C(=O)O)c(F)c4)[C@@](C)(CC(=O)Nc4nccs4)NCC5)nn3)c2)cc1 (stereo partly drawn) [Example 54, 2-(3-(1-(2-(((R)-7-(4-carboxy-3-fluorophenoxy)-1-methyl-1-(2-oxo-2-(thiazol-2-ylamino)ethyl)-1,2,3,4-tetrahydroisoquinolin-6-yl)oxy)ethyl)-1H-1,2,3-triazol-4-yl)phenyl)-1-oxo-3-(p-tolyl)-1,2,3,4-tetrahydroisoquinoline-4-carboxylic acid]	–	6.08	5.98
C[C@]1(CC(=O)Nc2nccs2)NCCc2cc(OCCn3cc(C(O)CN)nn3)c(Oc3ccc(C(=O)O)c(F)c3)cc21 (stereo partly drawn) [Example 55, 4-(((1R)-6-(2-(4-(2-amino-1-hydroxyethyl)-1H-1,2,3-triazol-1-yl)ethoxy)-1-methyl-1-(2-oxo-2-(thiazol-2-ylamino)ethyl)-1,2,3,4-tetrahydroisoquinolin-7-yl)oxy)-2-fluorobenzoic acid]	5.82	6.06	–
C[C@]1(CC(=O)Nc2nccs2)NCCc2cc(OCc3ccccn3)c(Oc3ccc(C(=O)O)c(F)c3)cc21 [Example 65, (R)-2-fluoro-4-((1-methyl-1-(2-oxo-2-(thiazol-2-ylamino)ethyl)-6-(pyridin-2-ylmethoxy)-1,2,3,4-tetrahydroisoquinolin-7-yl)oxy)benzoic acid]	7.31	6.52	–
C[C@]1(CC(=O)Nc2nccs2)NCCc2cc(OCC3CCCCO3)c(Oc3ccc(C(=O)O)c(F)c3)cc21 (stereo partly drawn) [Example 66, 2-fluoro-4-(((1R)-1-methyl-1-(2-oxo-2-(thiazol-2-ylamino)ethyl)-6-((tetrahydro-2H-pyran-2-yl)methoxy)-1,2,3,4-tetrahydroisoquinolin-7-yl)oxy)benzoic acid]	–	6.40	9.14
C[C@]1(CC(=O)Nc2nccs2)NCCc2cc(OCc3ncccn3)c(Oc3ccc(C(=O)O)c(F)c3)cc21 [Example 68, (R)-2-fluoro-4-((1-methyl-1-(2-oxo-2-{thiazol-2-ylamino)ethyl)-6-(pyrimidin-2-ylmethoxy)-1,2,3,4-tetrahydroisoquinolin-7-yl)oxy)benzoic acid]	7.56	6.32	–
COCCOc1cc2c(cc1Oc1ccc(C(=O)O)cc1)[C@@](C)(CC(=O)Nc1nccs1)NCC2 [Example 69, (R)-4-((6-(2-methoxyethoxy)-1-methyl-1-(2-oxo-2-(thiazol-2-ylamino)ethyl)-1,2,3,4-tetrahydroisoquinolin-7-yl)oxy)benzoic acid]	7.65	6.27	–

More lines, in order of rising pIC50 (PCSK9 [2]), values ahead:

ΔTm at 300 µM (PCSK9 [1]) [°C]	pIC50 (PCSK9 [2])	DSC ΔTm (PCSK9 [1]) [°C]	SMILES
6.96	6.08	–	C[C@]1(CC(=O)Nc2nccs2)NCCc2cc(OCCn3cc(C(O)C(N)C(=O)O)nn3)c(Oc3ccc(C(=O)O)c(F)c3)cc21 (stereo partly drawn) [Example 53, 4-(((1R)-6-(2-(4-(2-amino-2-carboxy-1-hydroxyethyl)-1H-1,2,3-triazol-1-yl)ethoxy)-1-methyl-1-(2-oxo-2-(thiazol-2-ylamino)ethyl)-1,2,3,4-tetrahydroisoquinolin-7-yl)oxy)-2-fluorobenzoic acid]
6.74	6.17	–	C[C@]1(CC(=O)Nc2nccs2)NCCc2cc(OCCn3cc(CNS(C)(=O)=O)nn3)c(Oc3ccc(C(=O)O)c(F)c3)cc21 [Example 50, (R)-2-fluoro-4-((1-methyl-6-(2-(4-(methylsulfonamidomethyl)-1H-1,2,3-triazol-1-yl)ethoxy)-1-(2-oxo-2-(thiazol-2-ylamino)ethyl)-1,2,3,4-tetrahydroisoquinolin-7-yl)oxy)benzoic acid]
6.29	6.17	–	C[C@]1(CC(=O)Nc2nccs2)NCCc2cc(OCCn3cc(-c4cnccn4)nn3)c(Oc3ccc(C(=O)O)c(F)c3)cc21 [Example 49, (R)-2-fluoro-4-((1-methyl-1-(2-oxo-2-(thiazol-2-ylamino)ethyl)-6-(2-(4-(pyrazin-2-yl)-1H-1,2,3-triazol-1-yl)ethoxy)-1,2,3,4-tetrahydroisoquinolin-7-yl)oxy)benzoic acid]
6.03	6.28	–	C[C@]1(CC(=O)Nc2nccs2)NCCc2cc(OCC3CCCCO3)c(Oc3ccc(C(=O)O)c(F)c3)cc21 (stereo partly drawn) [Example 62, 2-fluoro-4-(((1R)-1-methyl-1-(2-oxo-2-(thiazol-2-ylamino)ethyl)-6-((tetrahydro-2H-pyran-2-yl)methoxy)-1,2,3,4-tetrahydroisoquinolin-7-yl)oxy)benzoic acid]
7.31	6.38	–	C[C@]1(CC(=O)Nc2nccs2)NCCc2cc(OCC3CCCO3)c(Oc3ccc(C(=O)O)cc3)cc21 (stereo partly drawn) [Example 67, 4-(((1R)-1-methyl-1-(2-oxo-2-(thiazol-2-ylamino)ethyl)-6-((tetrahydrofuran-2-yl)methoxy)-1,2,3,4-tetrahydroisoquinolin-7-yl)oxy)benzoic acid]
7.83	6.53	–	C[C@]1(CC(=O)Nc2nccs2)NCCc2cc(OCC(=O)O)c(Oc3ccc(C(=O)O)c(F)c3)cc21 [Example 64, (R)-4-((6-(carboxymethoxy)-1-methyl-1-(2-oxo-2-(thiazol-2-ylamino)ethyl)-1,2,3,4-tetrahydroisoquinolin-7-yl)oxy)-2-fluorobenzoic acid]
